The values that follow come from patent US10752635B2, “Indazole compounds and uses thereof” (Incyte Corporation, priority 2018, dated 2020).

One may read the Ki as the equilibrium dissociation constant of an inhibitor or competing ligand from its target. High values mean weaker binding, low ones tighter binding.

Sequence of HPK1 (Q92918 1-346 limits assumed): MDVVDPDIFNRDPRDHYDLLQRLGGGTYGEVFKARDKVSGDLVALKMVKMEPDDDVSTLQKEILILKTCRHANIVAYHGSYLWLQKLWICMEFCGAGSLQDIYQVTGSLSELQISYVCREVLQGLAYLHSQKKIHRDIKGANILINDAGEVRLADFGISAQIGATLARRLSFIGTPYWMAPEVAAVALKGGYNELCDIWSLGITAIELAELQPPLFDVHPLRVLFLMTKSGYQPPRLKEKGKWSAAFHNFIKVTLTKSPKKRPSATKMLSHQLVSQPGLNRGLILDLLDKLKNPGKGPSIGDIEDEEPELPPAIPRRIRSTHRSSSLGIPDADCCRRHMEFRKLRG

This experiment addresses HPK1 (Homo sapiens (Human), UniProt Q92918). Nature of the experiment: HPK1 Kinase Binding Assay. The note with it: active HPK1 (SignalChem M23-11G), tracer 222, LanthaScreen Eu-Anti GST antibody, one hour at 25° C. How it is done: A stock solution of 1 mM test compound was prepared in DMSO. The compound plate was prepared by 3-fold and 11-point serial dilutions. 0.1 μL of the compound in DMSO was transferred from the compound plate to the white 384 well polystyrene plates. The assay buffer contained 50 mM HEPES, pH 7.5, 0.01% Tween-20, 5 mM MgCl2, 0.01% BSA, and 5 mM DTT. 5 μL of 4 nM active HPK1 (SignalChem M23-11G) prepared in the buffer was added to the plate. The enzyme concentration given was based on the given stock concentration reported by the vender. […] After one hour incubation at 25° C., the plates were read on a PHERAstar FS plate reader (BMG Labtech). Ki values were determined.
In general terms: In TR-FRET formats the signal depends on donor and acceptor labels being close together.
Turning to `COc1cccc(F)c1-c1nccc(C(=O)Nc2cc(F)c3nn(C)cc3c2N2C[C@@H](N)C[C@H]2CO)n1` (single isomer, unassigned; peak 1) [3, Peak 1], the Ki was under 0.1 µM. Regarding `COc1cccc(F)c1-c1nccc(C(=O)Nc2cc(F)c3nn(C)cc3c2N2CCC3(CCNC3=O)C2)n1` (single isomer, unassigned; peak 1) [8, Peak 1], the inhibitory constant (Ki) is under 0.1 µM. Under `COc1cccc(F)c1-c1nccc(C(=O)Nc2cc(F)c3nn(C)cc3c2-c2ccccc2C)n1` (single isomer, unassigned; peak 1) [14, Peak 1] stands under 0.1 µM; under `COc1cccc(F)c1-c1nccc(C(=O)Nc2cc(C#N)c3nn(C)cc3c2N2CCC[C@@H](N)C2)n1` (single isomer, unassigned; peak 1) [15, Peak 1], under 0.1 µM. Under `CNC(=O)c1cc(NC(=O)c2ccnc(-c3c(F)cccc3OC)n2)c(N2CCC[C@@H](N)C2)c2cn(C)nc12` (single isomer, unassigned; peak 1) [16, Peak 1] stands 0.5 to 5 µM. Take `COc1cccc(F)c1-c1nccc(C(=O)Nc2cc(F)c3c(cnn3C)c2N2CCC3(CCNC3=O)C2)n1` (single isomer, unassigned; peak 2) [8, Peak 2]: the inhibition constant (Ki) was under 0.1 µM. Under `COc1cccc(F)c1-c1nccc(C(=O)Nc2cc(F)c3c(cnn3C)c2N2CCC[C@@H]2CN)n1` (single isomer, unassigned; peak 2) [10, Peak 2] stands under 0.1 µM; under `COc1cccc(F)c1-c1nccc(C(=O)Nc2cc(F)c3c(cnn3C)c2-c2ccccc2C)n1` (single isomer, unassigned; peak 2) [14, Peak 2], under 0.1 µM; under `COc1cccc(F)c1-c1nccc(C(=O)Nc2cc(C#N)c3c(cnn3C)c2N2CCC[C@@H](N)C2)n1` (single isomer, unassigned; peak 2) [15, Peak 2], under 0.1 µM.

With `CNC(=O)c1cc(NC(=O)c2ccnc(-c3c(F)cccc3OC)n2)c(N2CCC[C@@H](N)C2)c2cnn(C)c12` (single isomer, unassigned; peak 2) [16, Peak 2], the Ki is under 0.1 µM. Under `COc1cccc(F)c1-c1nccc(C(=O)Nc2cc(F)c3nn(C)cc3c2N2CCOCC2)n1` [7, Peak 1] stands under 0.1 µM; under `COc1cccc(F)c1-c1nccc(C(=O)Nc2cc(F)c3c(cnn3C)c2N2CCOCC2)n1` [7, Peak 2], under 0.1 µM; under `COc1cccc(F)c1-c1nccc(C(=O)Nc2cc(C)c3nn(C)cc3c2N2CCNCC2)n1` [18, Peak 1], under 0.1 µM. For `COc1cccc(F)c1-c1nccc(C(=O)Nc2cc(C)c3c(cnn3C)c2N2CCNCC2)n1` [18, Peak 2], the Ki is under 0.1 µM. `CCNC(=O)N1C[C@@H]2C[C@H]1CN2c1c(NC(=O)c2ccnc(-c3c(F)cccc3OC)n2)cc(F)c2c1cnn2C` [Example 2, (1S,4S)—N-Ethyl-5-(7-fluoro-5-(2-(2-fluoro-6-methoxyphenyl)pyrimidine-4-carboxamido)-1-methyl-1H-indazol-4-yl)-2,5-diazabicyclo[2.2.1]heptane-2-carboxamide] yielded a Ki of under 0.1 µM. For `COc1cccc(F)c1-c1nccc(C(=O)Nc2cc(F)c3c(cnn3C)c2N2CC(N)C2)n1` [Example 9, N-(4-(3-Aminoazetidin-1-yl)-7-fluoro-1-methyl-1H-indazol-5-yl)-2-(2-fluoro-6-methoxyphenyl)pyrimidine-4-carboxamide] the value was under 0.1 µM; for `COc1cccc(F)c1-c1nccc(C(=O)Nc2cc(F)c3c(cnn3C)c2C2CCNC2)n1` (stereo not shown) [Example 11, N-(7-Fluoro-1-methyl-4-(pyrrolidin-3-yl)-1H-indazol-5-yl)-2-(2-fluoro-6-methoxyphenyl)pyrimidine-4-carboxamide], under 0.1 µM. The compound `COc1cccc(F)c1-c1nccc(C(=O)Nc2cc(F)c3c(cnn3C)c2N2CCCC2=O)n1` [Example 12, N-(7-Fluoro-1-methyl-4-(2-oxopyrrolidin-1-yl)-1H-indazol-5-yl)-2-(2-fluoro-6-methoxyphenyl)pyrimidine-4-carboxamide] yielded a Ki of under 0.1 µM. Under `COc1cccc(F)c1-c1nccc(C(=O)Nc2cc(F)c3c(cnn3C)c2-n2cccn2)n1` [Example 13, N-(7-Fluoro-1-methyl-4-(1H-pyrazol-1-yl)-1H-indazol-5-yl)-2-(2-fluoro-6-methoxyphenyl)pyrimidine-4-carboxamide] stands under 0.1 µM; under `COc1cccc(F)c1-c1nccc(C(=O)Nc2cc(F)c3c(cnn3CCO)c2N2CC[C@@H](N)C2)n1` [Example 17, (R)—N-(4-(3-Aminopyrrolidin-1-yl)-7-fluoro-1-(2-hydroxyethyl)-1H-indazol-5-yl)-2-(2-fluoro-6-methoxyphenyl)pyrimidine-4-carboxamide], under 0.1 µM.

Regarding `COc1cccc(F)c1-c1nccc(C(=O)Nc2cc(F)c3c(cnn3C)c2-c2cccnc2)n1` [Example 20, N-(7-Fluoro-1-methyl-4-(pyridin-3-yl)-1H-indazol-5-yl)-2-(2-fluoro-6-methoxyphenyl)pyrimidine-4-carboxamide], the inhibitory constant (Ki) is under 0.1 µM. For `COc1cccc(F)c1-c1nccc(C(=O)Nc2cc(F)c3c(cnn3C)c2-c2cnn(C)c2)n1` [Example 21, N-(7-Fluoro-1-methyl-4-(1-methyl-1H-pyrazol-4-yl)-1H-indazol-5-yl)-2-(2-fluoro-6-methoxyphenyl)pyrimidine-4-carboxamide] the value was under 0.1 µM; for `COc1cccc(F)c1-c1nccc(C(=O)Nc2cc(F)c3c(cnn3C)c2-c2cccc(CO)c2)n1` [Example 22, N-(7-Fluoro-4-(3-(hydroxymethyl)phenyl)-1-methyl-1H-indazol-5-yl)-2-(2-fluoro-6-methoxyphenyl)pyrimidine-4-carboxamide], under 0.1 µM. Take `COc1cccc(F)c1-c1nccc(C(=O)Nc2cc(F)c3c(cnn3C)c2-c2ccccc2CO)n1` [Example 23, N-(7-Fluoro-4-(2-(hydroxymethyl)phenyl)-1-methyl-1H-indazol-5-yl)-2-(2-fluoro-6-methoxyphenyl)pyrimidine-4-carboxamide]: the inhibition constant (Ki) is under 0.1 µM.

Regarding `COc1cccc(F)c1-c1nccc(C(=O)Nc2cc(F)c3c(cnn3C)c2-c2cccc(CN(C)C)c2)n1` [Example 24, N-(4-(3-((Dimethylamino)methyl)phenyl)-7-fluoro-1-methyl-1H-indazol-5-yl)-2-(2-fluoro-6-methoxyphenyl)pyrimidine-4-carboxamide], the inhibition constant (Ki) was under 0.1 µM. Under `COc1cccc(F)c1-c1nccc(C(=O)Nc2cc(F)c3c(cnn3CCO)c2N2C[C@@H]3C[C@H]2CN3)n1` [Example 25, N-(4-((1S,4S)-2,5-diazabicyclo[2.2.1]heptan-2-yl)-7-fluoro-1-(2-hydroxyethyl)-1H-indazol-5-yl)-2-(2-fluoro-6-methoxyphenyl)pyrimidine-4-carboxamide] stands under 0.1 µM; under `COCCn1ncc2c(N3C[C@@H]4C[C@H]3CN4)c(NC(=O)c3ccnc(-c4c(F)cccc4OC)n3)cc(F)c21` [Example 26, N-(4-((1S,4S)-2,5-diazabicyclo[2.2.1]heptan-2-yl)-7-fluoro-1-(2-methoxyethyl)-1H-indazol-5-yl)-2-(2-fluoro-6-methoxyphenyl)pyrimidine-4-carboxamide], under 0.1 µM. Under `COc1cccc(F)c1-c1nccc(C(=O)Nc2ccc3c(c(I)nn3C)c2N2CCC(N(C)C)CC2)n1` [Example 27, N-(4-(4-(Dimethylamino)piperidin-1-yl)-3-iodo-1-methyl-1H-indazol-5-yl)-2-(2-fluoro-6-methoxyphenyl)pyrimidine-4-carboxamide] stands under 0.1 µM; under `COc1cccc(F)c1-c1nccc(C(=O)Nc2ccc3c(c(C)nn3C)c2N2CCC(N(C)C)CC2)n1` [Example 28, N-(4-(4-(Dimethylamino)piperidin-1-yl)-1,3-dimethyl-1H-indazol-5-yl)-2-(2-fluoro-6-methoxyphenyl)pyrimidine-4-carboxamide], under 0.1 µM; under `COc1cccc(F)c1-c1nccc(C(=O)Nc2ccc3c(c(-c4ccccc4)nn3C)c2N2CCC(N(C)C)CC2)n1` [Example 29, N-(4-(4-(Dimethylamino)piperidin-1-yl)-1-methyl-3-phenyl-1H-indazol-5-yl)-2-(2-fluoro-6-methoxyphenyl)pyrimidine-4-carboxamide], 0.1 to 0.5 µM. For `COc1cccc(F)c1-c1nccc(C(=O)Nc2ccc3c(c(-c4cnn(C)c4)nn3C)c2N2CCC(N(C)C)CC2)n1` [Example 30, N-(4-(4-(Dimethylamino)piperidin-1-yl)-1-methyl-3-(1-methyl-1H-pyrazol-4-yl)-1H-indazol-5-yl)-2-(2-fluoro-6-methoxyphenyl)pyrimidine-4-carboxamide] the value was under 0.1 µM; for `COCCn1ncc2c(N3C[C@@H](N)C[C@H]3CO)c(NC(=O)c3ccnc(-c4c(F)cccc4OC)n3)cc(F)c21` [Example 31, N-(4-((2S,4S)-4-Amino-2-(hydroxymethyl)pyrrolidin-1-yl)-7-fluoro-1-(2-methoxyethyl)-1H-indazol-5-yl)-2-(2-fluoro-6-methoxyphenyl)pyrimidine-4-carboxamide], under 0.1 µM. Compound `COc1cccc(F)c1-c1nccc(C(=O)Nc2cc(F)c3c(cnn3[C@@H]3CCOC3)c2N2C[C@@H](N)C[C@H]2CO)n1` [Example 32, N-(4-((2S,4S)-4-Amino-2-(hydroxymethyl)pyrrolidin-1-yl)-7-fluoro-1-((R)-tetrahydrofuran-3-yl)-1H-indazol-5-yl)-2-(2-fluoro-6-methoxyphenyl)pyrimidine-4-carboxamide] returned an inhibitory constant (Ki) of under 0.1 µM.

Compound `COc1cccc(F)c1-c1nccc(C(=O)Nc2cc(F)c3nn(C)cc3c2N2CCN[C@@H](CO)C2)n1` [Example 33, (R)—N-(7-Fluoro-4-(3-(hydroxymethyl)piperazin-1-yl)-2-methyl-2H-indazol-5-yl)-2-(2-fluoro-6-methoxyphenyl)pyrimidine-4-carboxamide] had a Ki of under 0.1 µM.
